Test systems include MOLT-4; LOX IMVI; CAKI-1; Malme-3M; SNB-75; COLO 205; UACC-62; RXF 393; SN12C; 786-0; UACC-257; HOP-62; HL-60; K562; SK-MEL-28; TK-10; PC-3; SW-620; M14; SF-539.
Holding throughout (test): NCI tumour cell line growth inhibition, 48 h

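Briefly, cells in 96-well plates were exposed to five compound concentrations for 48 h, and endpoints were estimated by linear interpolation. Here, GI50 denotes the concentration required for 50% inhibition of growth.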 Activity calls are given as the source filed them. No stated cut-off is given here; in the data, active = GI50 up to about 1.1 µM and inactive = higher.

In the case of `COc1ccc(Nc2nc3cc(C(F)(F)F)ccc3nc2C(=O)O)cc1`, the GI50 in the test with MOLT-4 was 7.87 µM (inactive); in the test on LOX IMVI, 16.1 µM (inactive); in the test on CAKI-1, 33.2 µM (inactive); in the test on Malme-3M it was 18.2 µM (inactive); in the test on SNB-75, 17.6 µM (inactive); in the test on COLO 205, 21.3 µM (inactive). Also, the GI50 with UACC-62 was 13.6 µM (inactive); in the test with RXF 393 it was 11.9 µM (inactive); in the test with SN12C, 27 µM (inactive); with 786-0, 17.5 µM (inactive); with UACC-257, 19.1 µM (inactive); in the test with HOP-62, 14.9 µM (inactive). Besides, the GI50 is 19.9 µM (inactive) in the test with HL-60; 15.2 µM (inactive) in the test on K562; 31.7 µM (inactive) with SK-MEL-28; 34.4 µM (inactive) in the test with TK-10; 20.4 µM (inactive) with PC-3; 21.6 µM (inactive) in the test with SW-620.
Turning to `CC12CC3(O)OC(O1)C1(COC(=O)c4ccccc4)C3CC21OC1OC(CO)C(O)C(O)C1O` (centres undefined), the GI50 in the test with M14, with MOLT-4, with LOX IMVI, in the test with CAKI-1, in the test with Malme-3M and with COLO 205 was > 100 µM (inactive) in each case. The GI50 in the test with UACC-62, in the test on RXF 393, in the test with SN12C, with 786-0, in the test on UACC-257 and in the test with HOP-62 was > 100 µM (inactive) in each case. Moreover, the GI50 in the test with HL-60, in the test on SK-MEL-28, with TK-10, in the test with PC-3, in the test on SF-539 and with SW-620 was > 100 µM (inactive) in each case.
Consider `CCOC(=O)CN1C(=O)c2ccc(NC(=O)C(=O)O)cc2S1(=O)=O`, for which the GI50 in the test with M14, in the test with MOLT-4, with LOX IMVI, in the test on CAKI-1, in the test with Malme-3M and in the test on COLO 205 was > 100 µM (inactive) each time. For the same compound, the GI50 in the test with UACC-62, in the test with RXF 393, in the test with SN12C, in the test with 786-0, in the test with UACC-257 and in the test on HOP-62 was > 100 µM (inactive) throughout. The GI50 in the test with HL-60, with K562, with SK-MEL-28, with TK-10, with PC-3 and in the test on SW-620 was > 100 µM (inactive) throughout.
As for `CCOC(=O)c1c(NC(=O)c2ccccc2)c(C#N)c2n1CCCCC2`, the GI50 with M14, with MOLT-4, in the test on LOX IMVI, in the test on CAKI-1, with Malme-3M and in the test on SNB-75 was > 100 µM (inactive) each time. Also, the GI50 in the test on COLO 205, in the test with UACC-62, in the test with RXF 393, in the test on SN12C, with 786-0 and in the test on UACC-257 was > 100 µM (inactive) in each case. Besides, the GI50 in the test with HOP-62, with HL-60, in the test on K562, in the test with SK-MEL-28, with TK-10 and with PC-3 was > 100 µM (inactive) each time.
As for `O=C1C(NCCF)=C(Cl)C(=O)c2ncccc21`, the GI50 with M14 was 0.869 µM (active); in the test on MOLT-4, 1.22 µM (inactive); in the test on LOX IMVI, 0.284 µM (active); in the test with Malme-3M it was 0.402 µM (active); in the test on SNB-75, 0.617 µM (active); in the test with UACC-62 it was 0.247 µM (active). In addition, the GI50 with RXF 393 was 0.736 µM (active); in the test with SN12C, 1.02 µM (active); with 786-0, 1.19 µM (inactive); in the test on UACC-257, 1.4 µM (inactive); with HOP-62, 1.47 µM (inactive); in the test on HL-60 it was 0.413 µM (active). The GI50 is 0.206 µM (active) in the test on K562; 0.701 µM (active) in the test with SK-MEL-28; 1.81 µM (inactive) in the test with TK-10; 1.29 µM (inactive) in the test on PC-3; 1 µM (active) in the test on SF-539; 0.378 µM (active) in the test on SW-620.
As to `O=C(/C=C1\N=C(c2ccccc2)N(c2ccc3c(c2)Sc2cc(N4C(=O)/C(=C/C(=O)/C=C/c5ccccc5)N=C4c4ccccc4)ccc2N3)C1=O)/C=C/c1ccccc1`, the GI50 in the test on M14 is 64 µM (inactive); with MOLT-4, 41.4 µM (inactive); in the test with LOX IMVI, 30.5 µM (inactive); in the test on CAKI-1, 42.6 µM (inactive); in the test with Malme-3M it was 26.1 µM (inactive); in the test on SNB-75 it was 17.3 µM (inactive). The GI50 with COLO 205 was > 100 µM (inactive); in the test on UACC-62, 18.2 µM (inactive); with RXF 393, 27.3 µM (inactive); with SN12C it was 36.8 µM (inactive); in the test on 786-0, 42.2 µM (inactive); with UACC-257, 27.4 µM (inactive). Besides, the GI50 with HOP-62 was 48.8 µM (inactive); with HL-60, 40.6 µM (inactive); in the test on K562 it was 30.8 µM (inactive); in the test with SK-MEL-28, 65.2 µM (inactive); in the test with TK-10 it was 45.1 µM (inactive); with PC-3, 19.5 µM (inactive). Moreover, in the test with SW-620, the GI50 was 67.6 µM (inactive).
Consider `CCCSC1=N/C(=C\c2ccco2)C(=O)N1`, for which the GI50 is > 100 µM (inactive) in the test on M14; > 100 µM (inactive) in the test on MOLT-4; > 100 µM (inactive) in the test with LOX IMVI; > 100 µM (inactive) in the test on CAKI-1; > 100 µM (inactive) in the test on Malme-3M; 97.7 µM (inactive) in the test on SNB-75. Further, the GI50 in the test with COLO 205, in the test with UACC-62, with RXF 393, in the test on SN12C, in the test with 786-0 and in the test on UACC-257 was > 100 µM (inactive) in each case. Further, the GI50 with HOP-62, in the test with SK-MEL-28, in the test with TK-10, in the test on PC-3, in the test with SF-539 and with SW-620 was > 100 µM (inactive) throughout.
Turning to `CC(=O)OCC1OC(O[C@@H]2c3c(O)c4c(c(O)c3C3=C(NN(c5ccc([N+](=O)[O-])cc5[N+](=O)[O-])[Se]3=O)[C@@]2(C)O)C(=O)c2ccccc2C4=O)C(OC(C)=O)C(OC(C)=O)C1OC(C)=O` (some centres undefined), the GI50 in the test on M14 was 0.254 µM (active); in the test on MOLT-4, 0.0345 µM (active); with LOX IMVI it was 0.147 µM (active); in the test on CAKI-1 it was 0.274 µM (active); in the test with Malme-3M it was 0.157 µM (active); in the test with SNB-75, 0.394 µM (active). For the same compound, the GI50 with COLO 205 was 0.175 µM (active); in the test with UACC-62 it was 0.27 µM (active); with RXF 393, 0.31 µM (active); in the test on SN12C, 0.157 µM (active); with 786-0, 0.147 µM (active); with UACC-257, 0.376 µM (active). For the same compound, the GI50 was 0.189 µM (active) with HOP-62; 0.118 µM (active) in the test with K562; 0.242 µM (active) in the test with SK-MEL-28; 0.497 µM (active) in the test with TK-10; 0.261 µM (active) in the test with PC-3; 0.101 µM (active) in the test with SW-620.
As to `CCN(CC)CCC(=O)c1ccc(Cl)c(Cl)c1`, the GI50 was 42.3 µM (inactive) with M14; 19.9 µM (inactive) in the test on MOLT-4; 15 µM (inactive) with LOX IMVI; 24.7 µM (inactive) in the test with Malme-3M; 27.7 µM (inactive) in the test on SNB-75; 27.2 µM (inactive) with COLO 205. Moreover, the GI50 with UACC-62 was 14.8 µM (inactive); in the test on RXF 393, 12.5 µM (inactive); in the test on SN12C it was 39.3 µM (inactive); in the test on 786-0 it was 17.5 µM (inactive); with UACC-257, 46.7 µM (inactive); in the test on HOP-62, > 100 µM (inactive). For the same compound, the GI50 is 32.3 µM (inactive) with HL-60; 24.8 µM (inactive) in the test with K562; 16.6 µM (inactive) in the test with SK-MEL-28; > 10 µM (inactive) in the test on TK-10; 32.1 µM (inactive) in the test with PC-3; > 10 µM (inactive) in the test on SF-539. Also, in the test with SW-620, the GI50 was 19.7 µM (inactive).
With `CCOC(=O)c1nc2ccccc2nc1Oc1cc(OC)cc(OC)c1`, the GI50 is > 100 µM (inactive) with M14; > 100 µM (inactive) in the test on MOLT-4; > 100 µM (inactive) in the test on LOX IMVI; > 100 µM (inactive) in the test on Malme-3M; 81.5 µM (inactive) in the test on COLO 205; > 100 µM (inactive) in the test on UACC-62. The GI50 is 53.5 µM (inactive) in the test with RXF 393; > 100 µM (inactive) with SN12C; 35.5 µM (inactive) with 786-0; > 100 µM (inactive) in the test with UACC-257; 69.7 µM (inactive) in the test with HOP-62; 8.41 µM (inactive) in the test with HL-60. The GI50 was > 100 µM (inactive) with K562; > 100 µM (inactive) with SK-MEL-28; > 100 µM (inactive) in the test with TK-10; > 100 µM (inactive) with PC-3; 61.7 µM (inactive) in the test with SF-539; > 100 µM (inactive) with SW-620.
With `Cc1ccc(-c2nc(Cc3n[nH]c(-c4ccc(C)cc4)n3)n[nH]2)cc1`, the GI50 in the test on M14 is > 100 µM (inactive); in the test with MOLT-4, > 100 µM (inactive); in the test with LOX IMVI, > 100 µM (inactive); with SNB-75, 3.2 µM (inactive); in the test on COLO 205, > 100 µM (inactive); with UACC-62 it was 4.86 µM (inactive). The GI50 with RXF 393 was 21.1 µM (inactive); in the test on SN12C, > 100 µM (inactive); with 786-0, > 100 µM (inactive); with UACC-257, > 100 µM (inactive); in the test on HOP-62 it was 29 µM (inactive); in the test on K562, > 100 µM (inactive). In addition, the GI50 in the test on SK-MEL-28, with TK-10, in the test with PC-3, in the test with SF-539 and in the test on SW-620 was > 100 µM (inactive) each time.
